Here are results for two molecules from patent US20170107294A1, “ANTI-CD14 ANTIBODIES AND USES THEREOF” (Nordlandssykehuset HF, priority 2014, published 2017).

For one assay, the target named is factor D (Homo sapiens, UniProt P00746). Conditions: cited from earlier work.
For a further assay, the target named is human C1q (Homo sapiens, UniProt P02745+P02746+P02747). Kind of assay: ELISA for C1q binding. The procedure: Ninety-six-well plates (Nunc, Roskilde, Denmark) were coated with serial dilution of the Abs (6.0-0.09 mg/ml) and incubated overnight at 4° C. followed by washing three times with PBS/Tween (pH 7.4). The wells were blocked with 4% skimmed milk (Neogen Europe, Auchincruive, U.K.) for 1 h at room temperature and then washed in PBS/Tween (pH 6.0). Purified hFcRn-GST or pFcRn-GST (1 mg/ml) were diluted in 4% skimmed milk in PBS/Tween (pH 6.0) and preincubated with an HRP-conjugated anti-GST Ab (GE Healthcare U.K., Buckinghamshire, U.K.) diluted 1:5000 and added to the wells. The plates were incubated for 1 h at room temperature and washed with PBS/Tween (pH 6.0). Bound receptor was detected by adding 100 ml of 3,39,5,59-tetramethylbenzidine substrate (Calbiochem-Novabiochem, Nottingham, U.K.). The absorbance was measured at 450 nm using a Sunrise TECAN spectrophotometer. The assay described above was also performed using PBS/Tween (pH 7.4) in all steps. The same setup was used with GST-fused versions of hFcgRI, hFcgRIIa (allotype His131), hFcgRIIb, hFcgRIIIa (allotype Val158), and hFcgRIIIb (1 mg/ml each). In addition, a biotinylated human C1q (hC1 q; 4 mg/ml) preparation was incubated with the Abs and detected using ALP-conjugated streptavidin (GE Healthcare). Absorbance was measured at 405 nm.

Usually IC50 stands for the point on the concentration scale where inhibition reaches its midpoint.

human C1q, sequence (P02745 23-245): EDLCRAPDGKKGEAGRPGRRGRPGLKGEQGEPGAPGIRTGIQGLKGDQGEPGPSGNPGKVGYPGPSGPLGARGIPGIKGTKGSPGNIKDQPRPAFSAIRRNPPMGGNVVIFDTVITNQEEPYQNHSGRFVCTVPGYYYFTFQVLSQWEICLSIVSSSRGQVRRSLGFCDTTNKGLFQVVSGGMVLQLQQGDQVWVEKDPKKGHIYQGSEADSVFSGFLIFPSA
human C1q, sequence (P02746 28-253): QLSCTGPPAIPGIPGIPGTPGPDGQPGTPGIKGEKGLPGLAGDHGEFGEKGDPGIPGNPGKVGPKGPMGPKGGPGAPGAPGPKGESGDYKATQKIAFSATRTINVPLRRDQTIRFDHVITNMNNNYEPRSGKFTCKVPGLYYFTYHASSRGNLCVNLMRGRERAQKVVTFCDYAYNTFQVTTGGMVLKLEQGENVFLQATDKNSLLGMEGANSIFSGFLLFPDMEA
human C1q, sequence (P02747 29-245): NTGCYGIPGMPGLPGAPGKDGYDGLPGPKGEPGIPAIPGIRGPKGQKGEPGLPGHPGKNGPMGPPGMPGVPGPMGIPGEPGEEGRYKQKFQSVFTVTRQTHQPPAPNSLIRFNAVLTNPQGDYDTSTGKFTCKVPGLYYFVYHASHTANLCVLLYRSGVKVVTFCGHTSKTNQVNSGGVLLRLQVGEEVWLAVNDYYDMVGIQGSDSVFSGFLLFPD
factor D, sequence (P00746 26-253): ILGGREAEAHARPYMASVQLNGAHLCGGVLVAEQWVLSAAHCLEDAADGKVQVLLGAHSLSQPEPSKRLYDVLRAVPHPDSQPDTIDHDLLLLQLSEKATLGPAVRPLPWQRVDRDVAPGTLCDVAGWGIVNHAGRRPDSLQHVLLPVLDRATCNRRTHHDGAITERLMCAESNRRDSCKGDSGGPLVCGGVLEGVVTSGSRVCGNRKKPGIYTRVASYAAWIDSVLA

`N=C(N)c1cc2ccc(OC(=O)c3cccs3)cc2s1` [BCX-1470]: the IC50 at factor D was 96 nM.
Consider “rituximab: humanized anti-CD20 IgG1 Ab from Roche, control for ELISA-based binding studies”, for which the “binding to C1q” value with human C1q was “did so in a dose-dependent manner”.
